According to US12371454B2, “Cyclic peptide compound having Kras inhibitory action” (priority 2019, dated 2025):
Starred links: 1 amine or outer side, 2 acyl side, 3 side chain; linkers in the order of their positions; H or OH if unused. Positions of bridges follow the written chain, without caps; N, C: chain ends. Non-standard residues stand in square brackets, D forms with d. Residues, ends and D or L forms follow the SMILES beside them. *: point of attachment. hPhe(3-Cl-4-CF3) = N[C@@H](CCc1ccc(C(F)(F)F)c(Cl)c1)C(=O)O; NMePhe(4-CF3) = CN[C@@H](Cc1ccc(C(F)(F)F)cc1)C(=O)O; NMePhe(4-Cl) = CN[C@@H](Cc1ccc(Cl)cc1)C(=O)O; NMePhe(4-Me) = CN[C@@H](Cc1ccc(C)cc1)C(=O)O; NMedβ3hAla = C[C@H](CC(=O)[*:2])N(C)[*:1]; Leu(4,5-dehydro) = C=C(C)C[C@H](N)C(=O)O; NMeAla(cPent) = CN[C@@H](CC1CCCC1)C(=O)O; Phe(3-Br) = N[C@@H](Cc1cccc(Br)c1)C(=O)O; Phe(3-Cl) = N[C@@H](Cc1cccc(Cl)c1)C(=O)O; Phe(3-I) = N[C@@H](Cc1cccc(I)c1)C(=O)O; X10 = CC(C)=CC[C@H](N[*:1])C(=O)[*:2]; NMeCha = CN[C@@H](CC1CCCCC1)C(=O)O; NMeD = CN[C@@H](CC(=O)O)C(=O)O; NMeL = CN[C@@H](CC(C)C)C(=O)O; NMeA = CN[C@@H](C)C(=O)O; NMeAib = CNC(C)(C)C(=O)O; Nle = CCCC[C@H](N)C(=O)O; Piperidide = C1CCN(*)CC1; Pyrrolidide = C1CCN(*)C1; dNMeA = CN[C@H](C)C(=O)O; Aze = O=C(O)[C@@H]1CCN1; Sar = CNCC(=O)O

target: T1, Kras and SOS1 (biotin-tagged human Kras loaded with GDP, His-tagged human SOS1) (Homo sapiens, UniProt P01116, G12D); assay: Protein-protein interaction inhibition between Kras and SOS1 (KrasGl2D-SOS PPI) using AlphaScreen; assay type: binding; details: AlphaScreen; biotin-tagged human Kras loaded with GDP, His-tagged human SOS1; read-out: KRAS G12D-SOS PPI IC50
T1 construct: made in house; host or cells: E. coli (stated for Kras only)
T1 sequence (P01116 1-188 isoform P01116-2 G12D): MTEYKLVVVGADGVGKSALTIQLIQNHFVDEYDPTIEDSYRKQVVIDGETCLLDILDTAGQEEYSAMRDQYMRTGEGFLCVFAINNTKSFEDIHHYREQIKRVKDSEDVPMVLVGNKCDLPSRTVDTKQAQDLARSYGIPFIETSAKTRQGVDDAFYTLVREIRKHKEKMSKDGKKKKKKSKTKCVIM
Procedure, shortened: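 Binding between SOS1 and Kras is detected as bead-proximity luminescence: illuminate Ni-conjugated donors (680 nm), collect 520-620 nm emission from streptavidin-conjugated acceptors; Kras carries biotin and GDP loaded after purification, SOS1 carries a His tag.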

| Compound | IC50 |
| --- | --- |
| CC[C@H](C)[C@@H]1NC(=O)[C@H](C)N(C)C(=O)C[C@@H](C)N(C)C(=O)[C@H](CC(C)C)NC(=O)C(C)(C)N(C)C(=O)[C@H](CC(C)C)NC(=O)[C@H](CCc2ccc(C(F)(F)F)c(Cl)c2)NC(=O)[C@@H](C)N(C)C(=O)[C@H](CC2CCCCC2)N(C)C(=O)[C@@H]2CCN2C(=O)CN(C)C1=O [Compound 1378] (cyclo([Aze][NMeCha][dNMeA][hPhe(3-Cl-4-CF3)]L[NMeAib]L[NMedβ3hAla][NMeA]I[Sar])) | 0.38 µM |
| CC[C@H](C)[C@@H]1NC(=O)[C@H](CC(C)C)N(C)C(=O)C[C@@H](C)N(C)C(=O)[C@H](CC(C)C)NC(=O)C(C)(C)N(C)C(=O)[C@H](CC(C)C)NC(=O)[C@H](CCc2ccc(C(F)(F)F)c(Cl)c2)NC(=O)CN(C)C(=O)[C@H](Cc2ccc(C)cc2)N(C)C(=O)[C@@H]2CCN2C(=O)[C@H](C)N(C)C1=O [Compound 1379] (cyclo([Aze][NMePhe(4-Me)][Sar][hPhe(3-Cl-4-CF3)]L[NMeAib]L[NMedβ3hAla][NMeL]I[NMeA])) | 0.064 µM |
| CC[C@H](C)[C@@H]1NC(=O)[C@H](C)N(C)C(=O)C[C@@H](C)N(C)C(=O)[C@H](CC(C)C)NC(=O)C(C)(C)N(C)C(=O)[C@H](CC(C)C)NC(=O)[C@H](CCc2ccc(C(F)(F)F)c(Cl)c2)NC(=O)[C@@H](C)N(C)C(=O)[C@H](Cc2ccc(C)cc2)N(C)C(=O)[C@@H]2CCN2C(=O)CN(C)C1=O [Compound 1382] (cyclo([Aze][NMePhe(4-Me)][dNMeA][hPhe(3-Cl-4-CF3)]L[NMeAib]L[NMedβ3hAla][NMeA]I[Sar])) | 0.23 µM |
| CC[C@H](C)[C@@H]1NC(=O)[C@H](C)N(C)C(=O)C[C@@H](C)N(C)C(=O)[C@H](CC(C)C)NC(=O)C(C)(C)N(C)C(=O)[C@H](CC(C)C)NC(=O)[C@H](CCc2ccc(C(F)(F)F)c(Cl)c2)NC(=O)[C@@H](C)N(C)C(=O)[C@H](Cc2ccc(C(F)(F)F)cc2)N(C)C(=O)[C@@H]2CCN2C(=O)CN(C)C1=O [Compound 1383] (cyclo([Aze][NMePhe(4-CF3)][dNMeA][hPhe(3-Cl-4-CF3)]L[NMeAib]L[NMedβ3hAla][NMeA]I[Sar])) | 0.13 µM |
| CC[C@H](C)[C@@H]1NC(=O)[C@H](CC(C)C)N(C)C(=O)C[C@@H](C)N(C)C(=O)[C@H](CC(C)C)NC(=O)C(C)(C)N(C)C(=O)[C@H](CC(C)C)NC(=O)[C@H](CCc2ccc(C(F)(F)F)c(Cl)c2)NC(=O)CN(C)C(=O)[C@H](Cc2ccc(C)cc2)N(C)C(=O)[C@@H]2CCN2C(=O)CN(C)C1=O [Compound 1386] (cyclo([Aze][NMePhe(4-Me)][Sar][hPhe(3-Cl-4-CF3)]L[NMeAib]L[NMedβ3hAla][NMeL]I[Sar])) | 0.01 µM |
| CC[C@H](C)[C@@H]1NC(=O)[C@H](C)N(C)C(=O)C[C@@H](C)N(C)C(=O)[C@H](CC(C)C)NC(=O)C(C)(C)N(C)C(=O)[C@H](CC(C)C)NC(=O)[C@H](CCc2ccc(C(F)(F)F)c(Cl)c2)NC(=O)CN(C)C(=O)[C@H](CC2CCCCC2)N(C)C(=O)[C@@H]2CCN2C(=O)CN(C)C1=O [Compound 1387] (cyclo([Aze][NMeCha][Sar][hPhe(3-Cl-4-CF3)]L[NMeAib]L[NMedβ3hAla][NMeA]I[Sar])) | 0.014 µM |
| CC[C@H](C)[C@@H]1NC(=O)[C@H](C)N(C)C(=O)C[C@@H](C)N(C)C(=O)[C@H](CC(C)C)NC(=O)C(C)(C)N(C)C(=O)[C@H](CC(C)C)NC(=O)[C@H](CCc2ccc(C(F)(F)F)c(Cl)c2)NC(=O)CN(C)C(=O)[C@H](CC2CCCCC2)N(C)C(=O)[C@@H]2CCN2C(=O)[C@H](C)N(C)C1=O [Compound 1391] (cyclo([Aze][NMeCha][Sar][hPhe(3-Cl-4-CF3)]L[NMeAib]L[NMedβ3hAla][NMeA]I[NMeA])) | 0.065 µM |
| CC[C@H](C)[C@@H]1NC(=O)[C@H](C)N(C)C(=O)C[C@@H](C)N(C)C(=O)[C@H](CC(C)C)NC(=O)C(C)(C)N(C)C(=O)[C@H](CC(C)C)NC(=O)[C@H](CCc2ccc(C(F)(F)F)c(Cl)c2)NC(=O)CN(C)C(=O)[C@H](Cc2ccc(C(F)(F)F)cc2)N(C)C(=O)[C@@H]2CCN2C(=O)CN(C)C1=O [Compound 1392] (cyclo([Aze][NMePhe(4-CF3)][Sar][hPhe(3-Cl-4-CF3)]L[NMeAib]L[NMedβ3hAla][NMeA]I[Sar])) | 0.028 µM |
| CC[C@H](C)[C@@H]1NC(=O)[C@H](CC(C)C)N(C)C(=O)C[C@@H](C)N(C)C(=O)[C@H](CC(C)C)NC(=O)C(C)(C)N(C)C(=O)[C@H](CC(C)C)NC(=O)[C@H](CCc2ccc(C(F)(F)F)c(Cl)c2)NC(=O)[C@@H](C)N(C)C(=O)[C@H](Cc2ccc(C)cc2)N(C)C(=O)[C@@H]2CCN2C(=O)CN(C)C1=O [Compound 1394] (cyclo([Aze][NMePhe(4-Me)][dNMeA][hPhe(3-Cl-4-CF3)]L[NMeAib]L[NMedβ3hAla][NMeL]I[Sar])) | 0.13 µM |
| CC[C@H](C)[C@@H]1NC(=O)[C@H](CC(C)C)N(C)C(=O)C[C@@H](C)N(C)C(=O)[C@H](CC(C)C)NC(=O)C(C)(C)N(C)C(=O)[C@H](CC(C)C)NC(=O)[C@H](CCc2ccc(C(F)(F)F)c(Cl)c2)NC(=O)[C@@H](C)N(C)C(=O)[C@H](Cc2ccc(C(F)(F)F)cc2)N(C)C(=O)[C@@H]2CCN2C(=O)CN(C)C1=O [Compound 1395] (cyclo([Aze][NMePhe(4-CF3)][dNMeA][hPhe(3-Cl-4-CF3)]L[NMeAib]L[NMedβ3hAla][NMeL]I[Sar])) | 0.27 µM |
| CC[C@H](C)[C@@H]1NC(=O)[C@H](C)N(C)C(=O)C[C@@H](C)N(C)C(=O)[C@H](CC(C)C)NC(=O)C(C)(C)N(C)C(=O)[C@H](CC(C)C)NC(=O)[C@H](CCc2ccc(C(F)(F)F)c(Cl)c2)NC(=O)CN(C)C(=O)[C@H](Cc2ccc(C(F)(F)F)cc2)N(C)C(=O)[C@@H]2CCN2C(=O)[C@H](C)N(C)C1=O [Compound 1399] (cyclo([Aze][NMePhe(4-CF3)][Sar][hPhe(3-Cl-4-CF3)]L[NMeAib]L[NMedβ3hAla][NMeA]I[NMeA])) | 0.07 µM |
| CC[C@H](C)[C@@H]1NC(=O)[C@H](CC(C)C)N(C)C(=O)C[C@@H](C)N(C)C(=O)[C@H](CC(C)C)NC(=O)C(C)(C)N(C)C(=O)[C@H](CC(C)C)NC(=O)[C@H](CCc2ccc(C(F)(F)F)c(Cl)c2)NC(=O)[C@@H](C)N(C)C(=O)[C@H](CC2CCCCC2)N(C)C(=O)[C@@H]2CCN2C(=O)CN(C)C1=O [Compound 1400] (cyclo([Aze][NMeCha][dNMeA][hPhe(3-Cl-4-CF3)]L[NMeAib]L[NMedβ3hAla][NMeL]I[Sar])) | 0.21 µM |
| CC[C@H](C)[C@@H]1NC(=O)[C@H](CC(C)C)N(C)C(=O)C[C@@H](C)N(C)C(=O)[C@H](CC(C)C)NC(=O)C(C)(C)N(C)C(=O)[C@H](CC(C)C)NC(=O)[C@H](CCc2ccc(C(F)(F)F)c(Cl)c2)NC(=O)CN(C)C(=O)[C@H](Cc2ccc(C(F)(F)F)cc2)N(C)C(=O)[C@@H]2CCN2C(=O)[C@H](C)N(C)C1=O [Compound 1401] (cyclo([Aze][NMePhe(4-CF3)][Sar][hPhe(3-Cl-4-CF3)]L[NMeAib]L[NMedβ3hAla][NMeL]I[NMeA])) | 0.12 µM |
| CC[C@H](C)[C@@H]1NC(=O)[C@H](C)N(C)C(=O)C[C@@H](C)N(C)C(=O)[C@H](CC(C)C)NC(=O)C(C)(C)N(C)C(=O)[C@H](CC(C)C)NC(=O)[C@H](CCc2ccc(C(F)(F)F)c(Cl)c2)NC(=O)CN(C)C(=O)[C@H](Cc2ccc(C)cc2)N(C)C(=O)[C@@H]2CCN2C(=O)[C@H](C)N(C)C1=O [Compound 1402] (cyclo([Aze][NMePhe(4-Me)][Sar][hPhe(3-Cl-4-CF3)]L[NMeAib]L[NMedβ3hAla][NMeA]I[NMeA])) | 0.057 µM |
| CC[C@H](C)[C@@H]1NC(=O)[C@H](CC(C)C)N(C)C(=O)C[C@@H](C)N(C)C(=O)[C@H](CC(C)C)NC(=O)C(C)(C)N(C)C(=O)[C@H](CC(C)C)NC(=O)[C@H](CCc2ccc(C(F)(F)F)c(Cl)c2)NC(=O)CN(C)C(=O)[C@H](Cc2ccc(C(F)(F)F)cc2)N(C)C(=O)[C@@H]2CCN2C(=O)CN(C)C1=O [Compound 1403] (cyclo([Aze][NMePhe(4-CF3)][Sar][hPhe(3-Cl-4-CF3)]L[NMeAib]L[NMedβ3hAla][NMeL]I[Sar])) | 0.032 µM |
| CCCC[C@@H]1NC(=O)[C@H](Cc2cccc(Br)c2)NC(=O)CN(C)C(=O)[C@H](Cc2ccc(Cl)cc2)N(C)C(=O)CN(C)C(=O)CN(C)C(=O)[C@H]([C@@H](C)CC)NC(=O)[C@H](CC(C)C)N(C)C(=O)C[C@@H](C(=O)N2CCCCC2)N(C)C(=O)[C@H](CC(C)C)NC(=O)C(C)(C)N(C)C1=O [Compound 1404] ([NMeL]I[Sar][Sar][NMePhe(4-Cl)][Sar][Phe(3-Br)][Nle][NMeAib]L[NMeD]-Piperidide; lactam N-11) | 0.017 µM |
| C=C(C)C[C@@H]1NC(=O)[C@H](Cc2cccc(I)c2)NC(=O)CN(C)C(=O)[C@H](CC2CCCC2)N(C)C(=O)[C@@H]2CCN2C(=O)[C@H](C)N(C)C(=O)[C@H]([C@@H](C)CC)NC(=O)[C@H](CC(C)C)N(C)C(=O)C[C@@H](C(=O)N2CCCCC2)N(C)C(=O)[C@H](CC(C)C)NC(=O)C(C)(C)N(C)C1=O [Compound 1405] ([NMeL]I[NMeA][Aze][NMeAla(cPent)][Sar][Phe(3-I)][Leu(4,5-dehydro)][NMeAib]L[NMeD]-Piperidide; lactam N-11) | 0.082 µM |
| CCCC[C@@H]1NC(=O)[C@H](Cc2cccc(Cl)c2)NC(=O)CN(C)C(=O)[C@H](Cc2ccc(Cl)cc2)N(C)C(=O)CN(C)C(=O)CN(C)C(=O)[C@H]([C@@H](C)CC)NC(=O)[C@H](CC(C)C)N(C)C(=O)C[C@@H](C(=O)N2CCCC2)N(C)C(=O)[C@H](CC(C)C)NC(=O)C(C)(C)N(C)C1=O [Compound 1407] ([NMeL]I[Sar][Sar][NMePhe(4-Cl)][Sar][Phe(3-Cl)][Nle][NMeAib]L[NMeD]-Pyrrolidide; lactam N-11) | 0.17 µM |
| CC[C@H](C)[C@@H]1NC(=O)[C@H](CC(C)C)N(C)C(=O)C[C@@H](C)N(C)C(=O)[C@H](CC(C)C)NC(=O)C(C)(C)N(C)C(=O)[C@H](CC=C(C)C)NC(=O)[C@H](Cc2cccc(I)c2)NC(=O)CN(C)C(=O)[C@H](Cc2ccc(Cl)cc2)N(C)C(=O)[C@@H]2CCN2C(=O)CN(C)C1=O [Compound 1408] (cyclo([Aze][NMePhe(4-Cl)][Sar][Phe(3-I)][X10][NMeAib]L[NMedβ3hAla][NMeL]I[Sar])) | 0.16 µM |
